Laboratory results published in PubChem BioAssay AID1963974 (Molecular Pharmacology Branch, DTP, NCI, 2024).

System: 648629-189-R-J1-PDC spheroids with HUVEC/MSC, viability
Assay: Anticancer human tumor 648629-189-R-J1-PDC patient-derived bladder carcinoma cell line growth inhibition [PI3K]
Details: for IC50: curve of first compound; for viability, T/C: stronger effect = lower value
Outline: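 Stroma-containing spheroids: tumor line, pooled-donor HUVEC, hMSC. Treatments: targeted agents with PI3K inhibitors. Dosing: clinically relevant, half-log spacing, 10 microM ceiling without known Cmax. Read-out: cell viability.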

[1] = second compound 0.0316 µM, first compound 0.0316 µM
[2] = second compound 0.0316 µM, first compound 0.1 µM
[3] = second compound 0.0316 µM, first compound 0.316 µM
[4] = second compound 0.0316 µM, first compound 1 µM
[5] = second compound 0.0316 µM, first compound 3.16 µM
[6] = second compound 0.0316 µM, first compound 10 µM
[7] = second compound 0.1 µM, first compound 0.0316 µM
[8] = second compound 0.1 µM, first compound 0.1 µM
[9] = second compound 0.1 µM, first compound 0.316 µM
[10] = second compound 0.1 µM, first compound 1 µM
[11] = second compound 0.1 µM, first compound 3.16 µM
[12] = second compound 0.1 µM, first compound 10 µM
[13] = second compound 0.316 µM, first compound 0.0316 µM
[14] = second compound 0.316 µM, first compound 0.1 µM
[15] = second compound 0.316 µM, first compound 0.316 µM
[16] = second compound 0.316 µM, first compound 1 µM
[17] = second compound 0.316 µM, first compound 3.16 µM
[18] = second compound 0.316 µM, first compound 10 µM
[19] = second compound 1 µM, first compound 0.0316 µM
[20] = second compound 1 µM, first compound 0.1 µM
[21] = second compound 1 µM, first compound 0.316 µM
[22] = second compound 1 µM, first compound 1 µM
[23] = second compound 1 µM, first compound 3.16 µM
[24] = second compound 1 µM, first compound 10 µM
[25] = second compound 3.16 µM, first compound 0.0316 µM
[26] = second compound 3.16 µM, first compound 0.1 µM
[27] = second compound 3.16 µM, first compound 0.316 µM
[28] = second compound 3.16 µM, first compound 1 µM
[29] = second compound 3.16 µM, first compound 3.16 µM
[30] = second compound 3.16 µM, first compound 10 µM
[31] = second compound 10 µM, first compound 0.0316 µM
[32] = second compound 10 µM, first compound 0.1 µM
[33] = second compound 10 µM, first compound 0.316 µM
[34] = second compound 10 µM, first compound 1 µM
[35] = second compound 10 µM, first compound 3.16 µM
[36] = second compound 10 µM, first compound 10 µM
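Further: spheroids exposed to agents for seven days before reading.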
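Wherever viability, T/C is given: percent of vehicle control luminescence where 100% = DMSO treated spheroids.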

With CC(C)NCC(C(=O)N1CCN(c2ncnc3c2C(C)CC3O)CC1)c1ccc(Cl)cc1 (stereo unspecified) + CC(Nc1ncnc2nc[nH]c12)c1cc2cccc(Cl)c2c(=O)n1-c1ccccc1 the IC50 (second compound 0.0316 µM) was 1050 nM, the IC50 (second compound 0.1 µM) was 1520 nM and the IC50 (second compound 0.316 µM) was 1140 nM. It also gave an IC50 (second compound 1 µM) of 1230 nM, an IC50 (second compound 3.16 µM) of 904 nM and an IC50 (second compound 10 µM) of 1010 nM. The viability, T/C [1] was 99.8%, the viability, T/C [2] was 93.6% and the viability, T/C [3] was 82%. It also gave a viability, T/C [4] of 49.4%, a viability, T/C [5] of 28.9% and a viability, T/C [6] of 17.3%. The viability, T/C [7] was 97.3%, the viability, T/C [8] was 90.3% and the viability, T/C [9] was 79.7%. It also gave a viability, T/C [10] of 61.3%, a viability, T/C [11] of 32.2% and a viability, T/C [12] of 19.3%. For the same compound, the viability, T/C [13] was 97.4%, the viability, T/C [14] was 91.2% and the viability, T/C [15] was 76.3%. For the same compound, the viability, T/C [16] was 53.4%, the viability, T/C [17] was 29.2% and the viability, T/C [18] was 17.7%. It also gave a viability, T/C [19] of 93.6%, a viability, T/C [20] of 94.5% and a viability, T/C [21] of 80.7%. It also gave a viability, T/C [22] of 54.2%, a viability, T/C [23] of 29.4% and a viability, T/C [24] of 17.5%. The viability, T/C [25] was 101%, the viability, T/C [26] was 91.3% and the viability, T/C [27] was 72.6%. For the same compound, the viability, T/C [28] was 48.6%, the viability, T/C [29] was 25.9% and the viability, T/C [30] was 15.5%. It also gave a viability, T/C [31] of 83.8%, a viability, T/C [32] of 72.2% and a viability, T/C [33] of 79.4%. The viability, T/C [34] was 48.4%, the viability, T/C [35] was 28.3% and the viability, T/C [36] was 18.2%.
In the case of CC(C)n1nc(-c2ccc3oc(N)nc3c2)c2c(N)ncnc21 + CC(Nc1ccc2c(c1)OCCn1cc(N3C(=O)OCC3C(F)F)nc1-2)C(N)=O, the IC50 (second compound 0.00316 µM) is reported as 61.3 nM, the IC50 (second compound 0.01 µM) is reported as 59.5 nM and the IC50 (second compound 0.0316 µM) is reported as 59 nM. The IC50 (second compound 0.1 µM) was 53.9 nM, the IC50 (second compound 0.316 µM) was 31.8 nM and the IC50 (second compound 1 µM) was 12.5 nM. It also gave a viability, T/C (second compound 0.00316 µM, first compound 0.000316 µM) of 119%, a viability, T/C (second compound 0.00316 µM, first compound 0.001 µM) of 100% and a viability, T/C (second compound 0.00316 µM, first compound 0.00316 µM) of 94.7%. It also gave a viability, T/C (second compound 0.00316 µM, first compound 0.01 µM) of 90%, a viability, T/C (second compound 0.00316 µM, first compound 0.0316 µM) of 68.8% and a viability, T/C (second compound 0.00316 µM, first compound 0.1 µM) of 36.2%. It also gave a viability, T/C (second compound 0.01 µM, first compound 0.000316 µM) of 102%, a viability, T/C (second compound 0.01 µM, first compound 0.001 µM) of 92.2% and a viability, T/C (second compound 0.01 µM, first compound 0.00316 µM) of 96.3%. For the same compound, the viability, T/C (second compound 0.01 µM, first compound 0.01 µM) was 95.5%, the viability, T/C (second compound 0.01 µM, first compound 0.0316 µM) was 74.3% and the viability, T/C (second compound 0.01 µM, first compound 0.1 µM) was 30%. The viability, T/C (second compound 0.0316 µM, first compound 0.000316 µM) was 119%, the viability, T/C (second compound 0.0316 µM, first compound 0.001 µM) was 103% and the viability, T/C (second compound 0.0316 µM, first compound 0.00316 µM) was 98.3%. The viability, T/C (second compound 0.0316 µM, first compound 0.01 µM) was 80%, the viability, T/C [1] was 75.9% and the viability, T/C [2] was 32.6%. It also gave a viability, T/C (second compound 0.1 µM, first compound 0.000316 µM) of 89.1%, a viability, T/C (second compound 0.1 µM, first compound 0.001 µM) of 94.9% and a viability, T/C (second compound 0.1 µM, first compound 0.00316 µM) of 80.3%. For the same compound, the viability, T/C (second compound 0.1 µM, first compound 0.01 µM) was 82.9%, the viability, T/C [7] was 72.5% and the viability, T/C [8] was 25.3%. The viability, T/C (second compound 0.316 µM, first compound 0.000316 µM) was 81.6%, the viability, T/C (second compound 0.316 µM, first compound 0.001 µM) was 73.3% and the viability, T/C (second compound 0.316 µM, first compound 0.00316 µM) was 78.6%. It also gave a viability, T/C (second compound 0.316 µM, first compound 0.01 µM) of 74.6%, a viability, T/C [13] of 50.2% and a viability, T/C [14] of 24.8%. It also gave a viability, T/C (second compound 1 µM, first compound 0.000316 µM) of 65.6%, a viability, T/C (second compound 1 µM, first compound 0.001 µM) of 63.1% and a viability, T/C (second compound 1 µM, first compound 0.00316 µM) of 67.2%. The viability, T/C (second compound 1 µM, first compound 0.01 µM) was 48%, the viability, T/C [19] was 39.8% and the viability, T/C [20] was 17.9%.
C#Cc1c(F)ccc2cc(O)cc(-c3ncc4c(N5CC6CCC(C5)N6)nc(OCC56CCCN5CC(F)C6)nc4c3F)c12 (stereo unspecified) + Cc1nc(NC(=O)N2CCCC2C(N)=O)sc1-c1ccnc(C(C)(C)C(F)(F)F)c1 showed an IC50 (second compound 0.0316 µM) of over 10000 nM, an IC50 (second compound 0.1 µM) of over 10000 nM and an IC50 (second compound 0.316 µM) of over 10000 nM. For the same compound, the IC50 (second compound 1 µM) was over 10000 nM, the IC50 (second compound 3.16 µM) was over 10000 nM and the IC50 (second compound 10 µM) was under 31.6 nM. For the same compound, the viability, T/C [1] was 100%, the viability, T/C [2] was 103% and the viability, T/C [3] was 103%. The viability, T/C [4] was 99.6%, the viability, T/C [5] was 89.3% and the viability, T/C [6] was 91.3%. For the same compound, the viability, T/C [7] was 101%, the viability, T/C [8] was 96.8% and the viability, T/C [9] was 97.5%. It also gave a viability, T/C [10] of 87.4%, a viability, T/C [11] of 95.1% and a viability, T/C [12] of 91.4%. For the same compound, the viability, T/C [13] was 90.7%, the viability, T/C [14] was 88.1% and the viability, T/C [15] was 87%. For the same compound, the viability, T/C [16] was 86.1%, the viability, T/C [17] was 80.4% and the viability, T/C [18] was 79.5%. For the same compound, the viability, T/C [19] was 77.9%, the viability, T/C [20] was 77.4% and the viability, T/C [21] was 77%. The viability, T/C [22] was 72.4%, the viability, T/C [23] was 68.9% and the viability, T/C [24] was 70.5%. It also gave a viability, T/C [25] of 52.7%, a viability, T/C [26] of 56.1% and a viability, T/C [27] of 55%. It also gave a viability, T/C [28] of 52.7%, a viability, T/C [29] of 50.6% and a viability, T/C [30] of 54.9%. The viability, T/C [31] was 36.3%, the viability, T/C [32] was 34.2% and the viability, T/C [33] was 34.5%. It also gave a viability, T/C [34] of 34.5%, a viability, T/C [35] of 31.2% and a viability, T/C [36] of 5.29%.
